The values that follow come from US6642227B2, “Inhibitors of c-Jun N-terminal kinases (JNK) and other protein kinases” (Vertex Pharmaceuticals Incorporated, priority 2001, dated 2003).

Structures are written as SMILES. pKi: −log10 of the molar value.

For one experiment, the target named is T1, human Src kinase (Homo sapiens, UniProt P12931).
T1 construct: full length recombinant human Src kinase; purchased Upstate Biotechnology 14-117; host or cells: baculovirus-infected cells
The experiment can be described thus: Src inhibition assay (A: radioactivity-based or B: spectrophotometric coupled-enzyme assay). The experiment is classed as biochemical. Conditions: assay A or B not specified; inhibitor concentration not given. Here is the method:
The compounds were evaluated as inhibitors of human Src kinase using either a radioactivity-based assay or spectrophotometric assay.
The compounds were assayed as inhibitors of full length recombinant human Src kinase (from Upstate Biotechnology, cat. no. 14-117) expressed and purified from baculo viral cells. Src kinase activity was monitored by following the incorporation of ^33p from ATP into the tyrosine of a random poly Glu-Tyr polymer substrate of composition, Glu:Tyr=4:1 (Sigma, cat. no. P-0275). The following were the final concentrations of the assay components: 0.05 M HEPES, pH 7.6, 10 mM MgCl2, 2 mM DTT, 0.25 mg/ml BSA, 10 μM ATP (1-2 uCi ^33P-ATP per reaction), 5 mg/ml poly Glu-Tyr, and 1-2 units of recombinant human Src kinase. In a typical assay, all the reaction components with the exception of ATP were pre-mixed and aliquoted into assay plate wells.
Inhibitors dissolved in DMSO were added to the wells to give a final DMSO concentration of 2.5%. The assay plate was incubated at 30° C. for 10 min before initiating the reaction with ^33P-ATP. After 20 min of reaction, the reactions were quenched with 150 μl of 10% trichloroacetic acid (TCA) containing 20 mM Na3PO4. The quenched samples were then transferred to a 96-well filter plate (Whatman, UNI-Filter GF/F Glass Fiber Filter, cat no. 7700-3310) installed on a filter plate vacuum manifold. Filter plates were washed four times with 10% TCA containing 20 mM Na3PO4 and then 4 times with methanol. 200 μl of scintillation fluid was then added to each well. The plates were sealed and the amount of radioactivity associated with the filters was quantified on a TopCount scintillation counter. The radioactivity incorporated was plotted as a function of the inhibitor concentration. The data was fitted to a competitive inhibition kinetics model to get the Ki for the compound.
The ADP produced from ATP by the human recombinant Src kinase-catalyzed phosphorylation of poly Glu-Tyr substrate was quanitified using a coupled enzyme assay (Fox et al (1998) Protein Sci 7, 2249). In this assay one molecule of NADH is oxidised to NAD for every molecule of ADP produced in the kinase reaction. The disappearance of NADH can be conveniently followed at 340 nm.
The following were the final concentrations of the assay components: 0.025 M HEPES, pH 7.6, 10 mM MgCl2, 2 mM DTT, 0.25 mg/ml poly Glu-Tyr, and 25 nM of recombinant human Src kinase. Final concentrations of the components of the coupled enzyme system were 2.5 mM phosphoenolpyruvate, 200 μM NADH, 30 μg/ml pyruvate kinase and 10 μg/ml lactate dehydrogenase.
In a typical assay, all the reaction components with the exception of ATP were pre-mixed and aliquoted into assay plate wells. Inhibitors dissolved in DMSO were added to the wells to give a final DMSO concentration of 2.5%. The assay plate was incubated at 30 C. for 10 min before initiating the reaction with 100 μM ATP. The absorbance change at 340 nm with time, the rate of the reaction, was monitored on a molecular devices plate reader. The data of rate as a function of the inhibitor concentration was fitted to compettive inhibition kinetics model to get the Ki for the compound.

For a further experiment, the target named is human Lck kinase (UniProt P06239). The experiment can be described thus: Lck inhibition assay (A: radioactivity-based or B: spectrophotometric coupled-enzyme assay). As to conditions: read-out: Lck Activity (Ki rating). In kind it is biochemical. Put shortly:
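Two formats. Radiometric: full-length bovine thymus Lck, poly(Glu:Tyr 4:1) 5 mg/ml, 10 μM ATP with ^33P-ATP, HEPES pH 7.6, 10 min preincubation then 20 min at 30 °C, TCA-quenched filter counting. Coupled: 50 nM recombinant human Lck, 150 μM ATP, NADH loss at 340 nm. Ki from competitive-inhibition fit.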

T1 sequence (P12931 whole entry): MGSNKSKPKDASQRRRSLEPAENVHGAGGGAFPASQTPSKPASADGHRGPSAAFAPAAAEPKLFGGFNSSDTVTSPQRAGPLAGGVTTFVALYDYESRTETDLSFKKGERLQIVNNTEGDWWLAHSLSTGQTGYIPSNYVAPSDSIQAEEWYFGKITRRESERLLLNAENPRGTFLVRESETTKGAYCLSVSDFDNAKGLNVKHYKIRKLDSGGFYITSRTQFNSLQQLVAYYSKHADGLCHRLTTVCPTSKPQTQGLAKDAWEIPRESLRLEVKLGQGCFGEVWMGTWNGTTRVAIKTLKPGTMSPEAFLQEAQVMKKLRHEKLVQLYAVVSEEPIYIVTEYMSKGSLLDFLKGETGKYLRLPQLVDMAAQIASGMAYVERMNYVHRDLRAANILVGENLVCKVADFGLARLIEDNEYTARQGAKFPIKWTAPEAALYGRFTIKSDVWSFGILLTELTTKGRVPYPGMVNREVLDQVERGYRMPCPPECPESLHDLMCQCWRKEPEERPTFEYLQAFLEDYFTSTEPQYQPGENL

What is called pKi is −log10 of the Ki, conventionally taken in molar units. In the case of `CCOc1sc(-c2ccnc(Nc3ccccc3)n2)c(-c2ccc(C)cc2)c1C#N` [IIa-15, 2-Ethoxy-5-(2-phenylamino-pyrimidin-4-yl)-4-p-tolyl-thiophene-3-carbonitrile], at human Src kinase, the “Src Activity (percent inhibition class D-F)” value is “F (compounds having an activity designated as “F” provided a provided a percent inhibition of between 67% and 100%)”. The pKi at human Lck kinase is more than 7.00.

Consider `CSc1sc(-c2ccnc(Nc3ccccc3)n2)c(-c2ccc(C)cc2)c1C#N` [IIa-14, 2-Methylsulfanyl-5-(2-phenylamino-pyrimidin-4-yl)-4-p-tolyl-thiophene-3-carbonitrile], for which, on human Src kinase, the “Src Activity (percent inhibition class D-F)” value was “F (compounds having an activity designated as “F” provided a provided a percent inhibition of between 67% and 100%)”. For the same molecule, the pKi at human Lck kinase is more than 7.00.

In the case of `CCOc1sc(-c2ccnc(Nc3ccccc3)n2)c(-c2ccc(Cl)cc2)c1C#N` [IIa-11, 2-Ethoxy-5-(2-phenylamino-pyrimidin-4-yl)-4-(4-chloro-phenyl)-thiophene-3-carbonitrile], on human Src kinase, the “Src Activity (percent inhibition class D-F)” value is “F (compounds having an activity designated as “F” provided a provided a percent inhibition of between 67% and 100%)”. The negative-log Ki (pKi) at human Lck kinase is 6.00 to 7.00.

Take `CSc1sc(-c2ccnc(Nc3ccccc3)n2)c(-c2ccc(Cl)cc2)c1C#N` [IIa-10, 2-Methylsulfanyl-5-(2-phenylamino-pyrimidin-4-yl)-4-(4-chloro-phenyl)-thiophene-3-carbonitrile]: the “Src Activity (percent inhibition class D-F)” value at human Src kinase is “F (compounds having an activity designated as “F” provided a provided a percent inhibition of between 67% and 100%)”. In addition, the pKi on human Lck kinase is more than 7.00.
